Converted amounts (≈) assume the structure as drawn.
Experiments:
[1] = Clearance in Sprague-Dawley rat at 5 mg/kg, po or 5 mg/kg, iv; format: ADME, organism-based; details: in vivo
[2] = Cmax in cynomolgus monkey at 0.5 mg/kg, po; format: ADME, organism-based, Macaca fascicularis; design: route oral, dose 0.5 mg/kg; details: in vivo
[3] = Half life in CD-1 mouse at 5 mg/kg, po or 5 mg/kg, iv; format: ADME, organism-based; details: in vivo
[4] = Toxicity in mouse xenografted with human MDA-MB-436 cells assessed as loss of body weight at 200 mg/kg, po administered qd measured after 15 days; format: organism-based; details: in vivo, 360 h, time 15 day
[5] = Thermodynamic solubility of the compound at pH 1.2; format: physicochemical; details: buffer, read-out: Therm_solubility
[6] = Half life in Sprague-Dawley rat at 5 mg/kg, po or 5 mg/kg, iv; format: ADME, organism-based; details: in vivo
MDA-MB-436 [7] = assay: Antitumor activity against human MDA-MB-436 cells xenografted in mouse assessed as tumor growth inhibition at 200 mg/kg, po qd and measured for 28 days; format: functional; details: MDA-MB-436, po, 672 h, time 28 day, read-out: TGI
[8] = In vivo Inhibition of Akt/p70S6K in mouse xenografted with human MDA-MB-436 cells assessed as reduction in S6 phosphorylation in tumor at 75 mg/kg, po measured after 24 hrs; format: functional; details: MDA-MB-436, po
Cytochrome P450 2B6 = target: T1, Cytochrome P450 2B6 (Homo sapiens, UniProt P20813); assay: Inhibition of CYP2B6 (unknown origin); format: ADME
T1 sequence (P20813 whole entry): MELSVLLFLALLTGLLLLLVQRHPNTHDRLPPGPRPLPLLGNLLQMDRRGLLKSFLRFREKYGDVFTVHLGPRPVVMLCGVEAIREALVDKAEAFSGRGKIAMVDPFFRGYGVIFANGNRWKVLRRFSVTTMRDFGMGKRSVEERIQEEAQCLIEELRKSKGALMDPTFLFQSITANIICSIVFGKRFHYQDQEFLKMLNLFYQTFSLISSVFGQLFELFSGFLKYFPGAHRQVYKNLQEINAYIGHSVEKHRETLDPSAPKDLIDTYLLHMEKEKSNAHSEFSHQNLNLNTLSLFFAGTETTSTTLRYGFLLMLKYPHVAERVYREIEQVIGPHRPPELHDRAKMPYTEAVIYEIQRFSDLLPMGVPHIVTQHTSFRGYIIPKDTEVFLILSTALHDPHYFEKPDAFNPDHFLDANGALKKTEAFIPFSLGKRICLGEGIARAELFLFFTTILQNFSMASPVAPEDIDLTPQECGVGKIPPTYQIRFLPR

[9] = Cmax in Beagle dog at 0.5 mg/kg, po; format: ADME, organism-based, Canis lupus familiaris; design: route oral, dose 0.5 mg/kg; details: in vivo
[10] = target: Voltage-gated inwardly rectifying potassium channel KCNH2 (Homo sapiens, UniProt Q12809); assay: Inhibition of human ERG by patch clamp assay
Chain of Voltage-gated inwardly rectifying potassium channel KCNH2 (Q12809 whole entry): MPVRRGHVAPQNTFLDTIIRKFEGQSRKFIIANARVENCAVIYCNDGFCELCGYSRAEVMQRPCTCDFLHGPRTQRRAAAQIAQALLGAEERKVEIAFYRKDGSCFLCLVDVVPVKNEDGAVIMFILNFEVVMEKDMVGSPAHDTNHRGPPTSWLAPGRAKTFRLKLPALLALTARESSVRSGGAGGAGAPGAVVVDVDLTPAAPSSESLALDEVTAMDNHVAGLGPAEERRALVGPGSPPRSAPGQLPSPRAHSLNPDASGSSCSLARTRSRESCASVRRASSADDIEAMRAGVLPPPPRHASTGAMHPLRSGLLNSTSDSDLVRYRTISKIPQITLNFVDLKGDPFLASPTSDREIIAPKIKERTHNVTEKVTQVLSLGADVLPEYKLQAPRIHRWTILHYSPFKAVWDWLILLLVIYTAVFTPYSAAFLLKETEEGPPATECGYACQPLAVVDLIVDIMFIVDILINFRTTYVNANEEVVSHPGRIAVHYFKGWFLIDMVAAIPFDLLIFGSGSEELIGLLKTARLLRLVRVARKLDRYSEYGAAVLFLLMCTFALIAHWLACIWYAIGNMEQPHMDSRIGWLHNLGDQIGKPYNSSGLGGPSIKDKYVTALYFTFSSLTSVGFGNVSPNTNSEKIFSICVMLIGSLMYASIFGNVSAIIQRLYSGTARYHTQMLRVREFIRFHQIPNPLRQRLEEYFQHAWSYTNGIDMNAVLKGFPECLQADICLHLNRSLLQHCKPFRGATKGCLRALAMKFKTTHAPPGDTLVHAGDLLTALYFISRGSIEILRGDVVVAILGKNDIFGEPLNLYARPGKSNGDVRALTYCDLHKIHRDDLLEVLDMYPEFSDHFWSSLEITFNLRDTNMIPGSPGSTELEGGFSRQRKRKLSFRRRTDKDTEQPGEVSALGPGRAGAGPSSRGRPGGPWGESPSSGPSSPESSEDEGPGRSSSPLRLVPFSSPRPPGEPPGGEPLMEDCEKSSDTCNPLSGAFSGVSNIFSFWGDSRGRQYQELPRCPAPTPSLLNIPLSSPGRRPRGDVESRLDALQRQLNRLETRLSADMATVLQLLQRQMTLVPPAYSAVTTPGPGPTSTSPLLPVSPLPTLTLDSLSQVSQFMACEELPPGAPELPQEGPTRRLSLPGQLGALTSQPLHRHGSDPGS

[11] = Intrinsic clearance in mouse liver microsomes; format: ADME, Microsome; details: read-out: CLH
Cytochrome P450 2D6 = Cytochrome P450 2D6 (Homo sapiens, UniProt P10635); assay: Inhibition of CYP2D6 (unknown origin); format: ADME
Chain of Cytochrome P450 2D6 (P10635 whole entry): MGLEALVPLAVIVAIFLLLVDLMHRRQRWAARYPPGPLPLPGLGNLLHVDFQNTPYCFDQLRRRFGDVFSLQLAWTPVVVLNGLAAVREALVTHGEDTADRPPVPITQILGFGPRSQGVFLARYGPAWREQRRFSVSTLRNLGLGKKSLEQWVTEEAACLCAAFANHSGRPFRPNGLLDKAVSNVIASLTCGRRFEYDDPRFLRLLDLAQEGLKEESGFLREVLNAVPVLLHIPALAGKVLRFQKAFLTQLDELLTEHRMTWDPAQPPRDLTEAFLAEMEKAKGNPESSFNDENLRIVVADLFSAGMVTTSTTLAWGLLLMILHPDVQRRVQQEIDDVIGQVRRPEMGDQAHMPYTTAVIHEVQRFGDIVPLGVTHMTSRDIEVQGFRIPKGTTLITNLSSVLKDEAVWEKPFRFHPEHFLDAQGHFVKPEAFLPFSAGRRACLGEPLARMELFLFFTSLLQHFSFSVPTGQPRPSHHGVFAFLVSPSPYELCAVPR

[12] = Efflux ratio of apparent permeability in human Caco-2 cells; format: ADME, cell-based
[13] = Clearance in CD-1 mouse at 5 mg/kg, po or 5 mg/kg, iv; format: ADME, organism-based; details: in vivo
Cytochrome P450 2C19 = Cytochrome P450 2C19 (Homo sapiens, UniProt P33261); assay: Inhibition of CYP2C19 (unknown origin); format: ADME
Chain of Cytochrome P450 2C19 (P33261 whole entry): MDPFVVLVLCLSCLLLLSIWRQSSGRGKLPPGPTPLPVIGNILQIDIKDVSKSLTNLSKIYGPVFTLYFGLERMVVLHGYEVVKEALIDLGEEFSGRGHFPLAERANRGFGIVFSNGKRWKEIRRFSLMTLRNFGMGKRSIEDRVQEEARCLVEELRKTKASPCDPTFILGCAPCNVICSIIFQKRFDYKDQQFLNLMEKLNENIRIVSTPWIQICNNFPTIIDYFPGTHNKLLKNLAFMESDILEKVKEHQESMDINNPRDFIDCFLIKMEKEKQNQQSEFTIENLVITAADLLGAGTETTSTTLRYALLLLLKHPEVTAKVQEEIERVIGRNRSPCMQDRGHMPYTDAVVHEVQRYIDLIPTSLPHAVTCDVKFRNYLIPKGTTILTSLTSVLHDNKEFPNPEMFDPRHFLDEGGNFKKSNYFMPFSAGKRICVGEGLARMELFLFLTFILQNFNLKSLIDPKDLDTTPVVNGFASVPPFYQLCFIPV

[14] = Thermodynamic solubility of the compound at pH 7.4; format: physicochemical; details: buffer, read-out: Therm_solubility
[15] = Oral bioavailability in Beagle dog at 0.5 mg/kg; format: ADME, organism-based, Canis lupus familiaris; details: in vivo
[16] = AUC in CD-1 mouse at 5 mg/kg, po; format: ADME, organism-based; design: dose 5 mg/kg; details: in vivo
[17] = Protein binding in human plasma assessed as unbound fraction; format: ADME, cell-free
[18] = AUC in Beagle dog at 0.5 mg/kg, po; format: ADME, organism-based, Canis lupus familiaris; design: dose 0.5 mg/kg; details: in vivo
[19] = Inhibition of p70S6K (unknown origin); design: species or system Homo sapiens
Cytochrome P450 2C8 = target: T2, Cytochrome P450 2C8 (Homo sapiens, UniProt P10632); assay: Inhibition of CYP2C8 (unknown origin); format: ADME
T2 sequence (P10632 whole entry): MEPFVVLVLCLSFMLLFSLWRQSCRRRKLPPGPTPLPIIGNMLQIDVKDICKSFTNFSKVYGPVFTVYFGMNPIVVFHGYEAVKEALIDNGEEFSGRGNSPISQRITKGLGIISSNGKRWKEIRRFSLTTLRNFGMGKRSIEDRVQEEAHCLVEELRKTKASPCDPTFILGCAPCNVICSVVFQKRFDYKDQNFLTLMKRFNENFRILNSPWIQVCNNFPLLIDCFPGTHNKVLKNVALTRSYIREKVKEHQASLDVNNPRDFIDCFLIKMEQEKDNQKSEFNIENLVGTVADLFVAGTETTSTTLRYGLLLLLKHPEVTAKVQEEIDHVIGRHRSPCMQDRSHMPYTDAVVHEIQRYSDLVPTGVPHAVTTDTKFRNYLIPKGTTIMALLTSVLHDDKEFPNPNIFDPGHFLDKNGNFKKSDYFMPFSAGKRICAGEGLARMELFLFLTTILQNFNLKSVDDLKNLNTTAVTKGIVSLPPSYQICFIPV

[20] = AUC in cynomolgus monkey at 0.5 mg/kg, po; format: ADME, organism-based, Macaca fascicularis; design: dose 0.5 mg/kg; details: in vivo
[21] = Cmax in CD-1 mouse at 5 mg/kg, po; format: ADME, organism-based; design: route oral, dose 5 mg/kg; details: in vivo
[22] = Intrinsic clearance in human liver microsomes; format: ADME, Microsome; details: read-out: CLH
[23] = Half life in Beagle dog at 0.5 mg/kg, po or 0.2 mg/kg, iv; format: ADME, organism-based, Canis lupus familiaris; details: in vivo
Cytochrome P450 3A4 = Cytochrome P450 3A4 (Homo sapiens, UniProt P08684); assay: Inhibition of CYP3A4 (unknown origin); format: ADME
Chain of Cytochrome P450 3A4 (P08684 whole entry): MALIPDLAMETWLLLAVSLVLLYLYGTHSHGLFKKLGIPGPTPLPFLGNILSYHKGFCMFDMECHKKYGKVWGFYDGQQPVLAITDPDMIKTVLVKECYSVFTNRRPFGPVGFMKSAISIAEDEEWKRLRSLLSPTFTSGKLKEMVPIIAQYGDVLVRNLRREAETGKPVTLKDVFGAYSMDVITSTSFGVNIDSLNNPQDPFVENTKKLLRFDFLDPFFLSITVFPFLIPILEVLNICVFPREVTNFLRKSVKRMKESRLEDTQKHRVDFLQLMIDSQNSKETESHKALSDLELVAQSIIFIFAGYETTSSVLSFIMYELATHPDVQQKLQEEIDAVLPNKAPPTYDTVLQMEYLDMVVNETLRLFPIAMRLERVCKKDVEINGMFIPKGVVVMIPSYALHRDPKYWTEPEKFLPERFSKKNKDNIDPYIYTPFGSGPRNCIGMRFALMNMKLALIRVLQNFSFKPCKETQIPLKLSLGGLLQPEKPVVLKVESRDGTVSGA

MDA-MB-436 [24] = assay: Antitumor activity against human MDA-MB-436 cells xenografted in mouse assessed as tumor growth inhibition at 75 mg/kg, po qd and measured for 28 days; format: functional; details: MDA-MB-436, po, 672 h, time 28 day, read-out: TGI
[25] = Toxicity in mouse xenografted with human MDA-MB-436 cells assessed as loss of body weight at 25 to 75 mg/kg, po administered qd measured for 28 days; format: organism-based; details: in vivo, 672 h, dose 25-75 mg/kg, time 28 day
[26] = In vivo Inhibition of Akt/p70S6K in mouse xenografted with human MDA-MB-436 cells assessed as reduction in S6 phosphorylation in tumor at 25 to 200 mg/kg, po measured after 4 to 8 hrs; format: functional; details: dose 25-200 mg/kg, time 4-8 hrs
MDA-MB-436 [27] = assay: Antitumor activity against human MDA-MB-436 cells xenografted in mouse assessed as tumor growth inhibition at 25 mg/kg, po qd and measured for 28 days; format: functional; details: MDA-MB-436, po, 672 h, time 28 day, read-out: TGI
Cytochrome P450 2C9 = Cytochrome P450 2C9 (Homo sapiens, UniProt P11712); assay: Inhibition of CYP2C9 (unknown origin); format: ADME
Chain of Cytochrome P450 2C9 (P11712 whole entry): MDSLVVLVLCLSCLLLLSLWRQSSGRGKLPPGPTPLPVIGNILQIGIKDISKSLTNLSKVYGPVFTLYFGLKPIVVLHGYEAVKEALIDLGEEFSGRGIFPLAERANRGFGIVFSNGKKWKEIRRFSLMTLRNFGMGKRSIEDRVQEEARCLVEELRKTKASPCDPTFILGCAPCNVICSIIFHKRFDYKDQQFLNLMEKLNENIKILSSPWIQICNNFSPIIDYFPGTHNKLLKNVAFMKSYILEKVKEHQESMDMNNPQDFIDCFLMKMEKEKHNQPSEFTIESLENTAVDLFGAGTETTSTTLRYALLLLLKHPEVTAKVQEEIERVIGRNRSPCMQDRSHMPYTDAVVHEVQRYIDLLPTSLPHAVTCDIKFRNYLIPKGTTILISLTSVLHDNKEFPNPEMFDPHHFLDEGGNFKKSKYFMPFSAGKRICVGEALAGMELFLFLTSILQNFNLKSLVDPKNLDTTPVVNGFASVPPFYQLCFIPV

[28] = In vivo Inhibition of Akt/p70S6K in mouse xenografted with human MDA-MB-436 cells assessed as reduction in S6 phosphorylation in tumor at 200 mg/kg, po measured after 24 hrs; format: functional; details: MDA-MB-436, po
[29] = Oral bioavailability in cynomolgus monkey at 0.5 mg/kg; format: ADME, organism-based, Macaca fascicularis; details: in vivo
[30] = Half life in cynomolgus monkey at 0.5 mg/kg, po or 0.2 mg/kg, iv; format: ADME, organism-based, Macaca fascicularis; details: in vivo
[31] = Protein binding in mouse plasma assessed as unbound fraction; format: ADME, cell-free

NC(=O)c1c(N)ncnc1N1CCC(c2nc(-c3ccc(F)c(C(F)(F)F)c3)cn2CCN2CCC2)CC1
clearance [1]: 312 mL/min/kg
Cmax [2]: 9.7 ng/mL
half-life [3]: 9.3 h
Activity [4]: > 5%
solubility thermodynamic [5]: 2960 µg/mL (≈ 5560 µM)
half-life [6]: 1.5 h
inhibition in vivo at 200 mg/kg (MDA-MB-436 [7]): 98%
inhibition in vivo at 75 mg/kg [8]: 87%
IC50 (Cytochrome P450 2B6): > 20 µM
Cmax [9]: 67.8 ng/mL
IC50 [10]: 17.4 µM
microsomal CLint [11]: 11 µL/min/mg
IC50 (Cytochrome P450 2D6): > 20 µM
efflux ratio [12]: 7.9
clearance [13]: 25 mL/min/kg
IC50 (Cytochrome P450 2C19): > 20 µM
solubility thermodynamic [14]: 4 µg/mL (≈ 7.51 µM)
bioavailability [15]: 65%
AUC [16]: 417 ng·h/mL
fraction unbound [17]: 0.21
AUC [18]: 2370 ng·h/mL
IC50 [19]: 0.003 µM
IC50 (Cytochrome P450 2C8): > 20 µM
AUC [20]: 82 ng·h/mL
Cmax [21]: 57 ng/mL
microsomal CLint [22]: 46 µL/min/mg
half-life [23]: 19 h
IC50 (Cytochrome P450 3A4): > 20 µM
inhibition in vivo at 75 mg/kg (MDA-MB-436 [24]): 100%
Activity [25]: < 5%
inhibition (INH) [26]: >95%
inhibition in vivo at 25 mg/kg (MDA-MB-436 [27]): 81%
IC50 (Cytochrome P450 2C9): > 20 µM
inhibition in vivo at 200 mg/kg [28]: 92%
bioavailability [29]: 23%
half-life [30]: 4 h
fraction unbound [31]: 0.21

Reference: ChEMBL document CHEMBL4823315 (Bioorg Med Chem Lett, 2021)
